# Values of other authors in patent US20210400960A1, “INSECT REPELLENT COMPOSITION” (Mother Earth Dermatics (MED) GMBH, priority 2018, published 2021).
# Tested on: insects
# Conditions: depending on the concentration
smiles,measurement,value
"CCN(CC)C(=O)c1cccc(C)c1 [DEET, N,N-diethyl-m-toluamide]",Duration of repellent effect,6 to 8 h
